Assay results published in patent US5298502A, “Method and composition for photodynamic treatment and detection of tumors” (priority 1991, dated 1994).

Key:
[1] = test system: DBA/2 Ha mice with SMT-F subcutaneous tumors; test: Proto IX content of tissues of tumor-bearing mice fed the agent (Example 6); assay type: in vivo; details: for concentration of Proto IX in tissue, Adrenal / concentration of Proto IX in tissue, Intestine / concentration of Proto IX in tissue, Kidneys / concentration of Proto IX in tissue, Liver / concentration of Proto IX in tissue, Tumor / Proto IX Mean Cps per gram, Intestine: 2000 ppm in feed; for Proto IX Mean Cps per gram, Adrenal / Proto IX Mean Cps per gram, Kidneys / Proto IX Mean Cps per gram, Liver / Proto IX Mean Cps per gram, Tumor / Weight of Tumor as excised: 2000 ppm in feed Days 2-10, sacrificed Day 10 (6j Day 7); for Proto IX Mean Cps per gram, Intestine: undiluted samples (6j Day 7)
Protocol: In this Example the enzyme-inhibiting agents were added to the feed of tumor-bearing mice; for some of the mice, used as a control, no agent was added to the feed. The mice were then sacrificed and their kidneys, intestines, adrenal glands, liver and tumor were removed and analyzed for their content of Proto IX. The following enzyme-inhibiting agents were employed: [drawing 10]
More particularly, the mice were DBA/2 Ha mice which had been injected with SMT-F subcutaneous tumors on Day 0 in the right shoulder. The mice, individually housed, received untreated Purina Rodent Chow 5001 Mash on Day 1; thereafter on Days 2 through 10 the mice received the same Mash treated with 2000 ppm of the inhibiting agent being tested (or, for the controls, the same untreated Mash). The treatment of the Mash was effected by blending it with a small amount of an acetone solution of the agent to be tested. The mice were then sacrificed on Day 10, except for the mouse treated with the agent designated as 6j; the latter was sacrificed on Day 7. The tissues were refrigerated at 4° C. overnight, then blotted dry, and the fresh weight of each tissue sample was recorded. The tissues were then homogenized in 5 mL, or lo mL in the cases of intestines and liver, of acetone-0.1 N NH4 OH (9:I, v/v). The homogenates were then centrifuged at 1500 g and the supernatants were analyzed on a SPEX FAII2 spectrofluorometer; excitation 400 nm, emission 630 nm wavelengths, the optima for Proto IX. Proto IX accumulation was determined as CPS (fluorescent counts per second emitted) per gram of tissue. The results are tabulated below (results are averages for two mice for each treatment, except for treatments with agents 6f, 6h, 6i and 6j in each of which only one mouse was treated): […]

HeLa cells [2] = test: Proto IX production in HeLa cells, extract of cells alone (Example 7); assay type: cell-based; details: Homo sapiens, 100 uM agent, first formula (background-subtracted), read-out: increase in the amount of Proto IX relative to the control
Protocol: In a series of experiments along the lines of Examples 1 and 2, cultures of HeLa cells were incubated in the presence of 100 uM of various treating agents, listed below. The percentage given, next to each treating agent, indicates the increase in the amount of Proto IX produced in the presence of that treating agent relative to the amount produced by the control in the same experiment.
As in Examples 1 and 2, the data for this Example 7 were based on measurements of fluorescence (e.g. in counts per second, "cps"). In this Example, however, the measurements were made on an extract of the cells alone (in contrast to Examples 1 and 2 in which the disrupted cells and culture medium together were extracted), the fluorometric medium was the one described in Example 5 (containing 1% Tween-20, 50 mM Tris-HCl, 1 mM EDTA and 1 mM dithioerythritol, pH 8.5), and a cps measurement of the fluorometric medium per se was also made. In calculating the foregoing data for this Example, the following formula was used to calculate the percentage increases: [formula] where Ca is the counts per second for the sample resulting from treatment with the agent, Cc is the counts per second for the control sample, and Cm is the counts per second for the fluorometric medium per se (i.e. the background fluoroescence). On reviewing the data it was observed that Cc -Cm for this set of experiments was […] compared to Cm; for instance, individual measured values were 49025 and 52069 for Cc and 4295 for Cm. […] Accordingly, the data were recalculated using the formula: [formula] with the following results: 6a 336%; 5b 148%; 6c 154%; 6d 510%; 6e 320%; 6f 280%; 6g 329%; 6h 178%; 6i 171%; 6j 185%; 7a 118%; 7b 142%; 7c 103%; 7d 128%; 7e 173%; 7f 118%; 7q 155%; 7h 118%.

HeLa cells [3] = test: Tetrapyrrole accumulation in treated HeLa cells (Example 1); assay type: cell-based, human; details: 100 μM agent, 3 days in the dark
Protocol: HeLa cells (a human tumor cell line commonly employed for tumor research and obtained from the American Type Culture Collection), in logarithmic growth phase (having been cultured at 37° C. for five days in one-liter Falcon tissue culture flasks), were washed in phosphate buffered saline (PBS). A 0.25% solution of trypsin in PBS (2 mL) was added, and, after several minutes, the cells were gently removed from the flask and placed into 110 mL of a 25 mM solution of Hepes in Minimum Essential Medium (MEM) supplemented with 10% v/v inactivated calf serum, 1.1 mL of a 200 mM solution of glutamine in 0.85% saline solution, and 11,000 units of penicillin/11,000 mcg streptomycin.
Then, 5.0 mL aliquots of the resulting resuspended cell culture were each placed into a 50 mL Falcon tissue culture flask and (except for the control) mixed with the treating agent. The aliquots were then incubated in the dark at 37° C. for three days. The cells were then removed and extracted under green light in the following manner:
Cells were removed from the bottom of the flask with the addition of 0.8 mL of a 0.25% solution of trypsin in PBS. After 1 hour of incubation in the dark, cells and medium were removed from the flasks, placed into round bottom centrifuge tubes, and then subjected to two rounds of freeze-thaw conditions to disrupt the cells and allow for extraction.
Ten mL of basic acetone (90% acetone:10% of 0.1 N NH4 OH) was then added to each tube, and the tubes were centrifuged to remove protein and cell debris. Five mL of water was added to the supernatant, followed by 0.5 mL of a saturated aqueous solution of NaCl. The pH was then adjusted to 6.8 by the dropwise addition of 2 M KH2 PO4. The aqueous acetone extract was then loaded onto a C8 Baker Prep column. The columns were dried and then washed with 2 mL of water. The tetrapyrroles were eluted with 2×1.5 mL volumes of 90/10 CH3 OH/H2 O. Extracts were then quantified on a spectrofluorometer.
Agent A was supplied as a filter-sterilized 250 mM solution in water, pH 6.5. Agents B, C, D, and E were supplied as 50 mM solutions in acetone. Acetone was also added to the control to provide a concentration of 0.2% v/v therein. The amounts of the agents added to the cell cultures were such as to give the concentrations specified in the Table 1 below. The amounts of the tetrapyrrole protoporphyrin IX ("Proto IX") produced are shown in that Table.

HeLa cells [4] = test: Growth inhibition and Proto IX accumulation in HeLa cells (Example 2); assay type: cell-based, human; details: for Amount of Proto IX: average amount per 10^6 cells
Protocol: HeLa cells, in logarithmic growth phase having been cultured for 6 days in six one-liter Falcon tissue culture flasks at 37° C.), were washed in phosphate buffered saline (PBS). A 0.25% solution of trypsin in PBS was added, and, after several minutes, the cells were gently removed and placed into 110 mL of a 25 mM solution of Hepes in Minimum Essential Medium (MEM), supplemented with 10% v/v inactivated calf serum, 1.1 mL of a 200 mM solution of glutamine in 0.85% saline solution, and 11,000 units of penicillin/11,000 mcg streptomycin.
Aliquots (5.0 mL each) of the resuspended cell culture were placed into 50 mL Falcon tissue culture flasks, with or without herbicide, and incubated in the dark at 37° C. for 4 days, the herbicide being added in dilute acetone solution as in Example 1. Acetone was also added to the controls to provide a concentration of acetone of 0.2% v/v therein. The amount of herbicide was such as to provide the concentrations specified in Table 2 below.
Extraction: The media from each of the flasks were placed in glass round bottom tubes, while the cells adhering to the bottom of the flasks were loosened by the addition of 0.5 mL of a 0.25% solution of trypsin in PBS, and after several minutes at 37° C., then washed from the flasks and recombined with their media. Aliquots of 100 μL were then removed from each cell suspension to determine cell density. The remaining 5.4 mL of cell suspension was then sonified for 30 minutes to disrupt the cells.
Ten mL of basic acetone (90% acetone:10% 0.1 N NH4 OH) was then added to each tube, and the tubes were centrifuged to remove protein and cell debris. Five mL of water was added to the supernatant, followed by 0.5 mL of a saturated aqueous solution of NaCl. The pH was then adjusted to 6.8 by the dropwise addition of 2 M KH2 PO4. The aqueous acetone extract was then loaded onto a C8 Baker Prep column. The columns were dried and then washed with 2 mL of water. The tetrapyrroles were eluted with 3 mL of 90/10 CH3 OH/H2 O. As in Example 1, all these extraction procedures were carried out substantially entirely under non-protoporphrin IX-exciting light (e.g. green light) or in the dark (e.g. in opaque covered containers). The fluorescence of the extracts was then determined on a SPEX spectrofluorometer. Protoporphyrin IX ("Proto IX") accumulation was quantified utilizing predetermined extinction coefficients.

C#CCN1C(=O)COc2cc(F)c(N=c3sc(=S)n4n3CCCC4)cc21 [Agent 6j]
concentration of Proto IX in tissue, Adrenal [1]: 4 ug of Proto IX per gram of tis | concentration of Proto IX in tissue, Intestine [1]: 5 ug of Proto IX per gram of tis | concentration of Proto IX in tissue, Kidneys [1]: 3 ug of Proto IX per gram of tis | concentration of Proto IX in tissue, Liver [1]: 5 ug of Proto IX per gram of tis | concentration of Proto IX in tissue, Tumor [1]: 11 ug of Proto IX per gram of tis | Proto IX Mean Cps per gram, Adrenal [1]: 491 Cps per gram × 10^3 | Proto IX Mean Cps per gram, Kidneys [1]: 315 Cps per gram × 10^3 | Proto IX Mean Cps per gram, Liver [1]: 538 Cps per gram × 10^3 | Proto IX Mean Cps per gram, Tumor [1]: 1251 Cps per gram × 10^3 | Weight of Tumor as excised [1]: 11 mg | Proto IX Mean Cps per gram, Intestine [1]: 572 Cps per gram × 10^3 | activation at 100 µM (HeLa cells [2]): 469%

CCCn1c(=O)ccc2cc(F)c(-n3nc(C)n(C(F)F)c3=O)cc21 [Agent 6f]
concentration of Proto IX in tissue, Adrenal [1]: 51 ug of Proto IX per gram of tis | concentration of Proto IX in tissue, Intestine [1]: 11 ug of Proto IX per gram of tis | concentration of Proto IX in tissue, Kidneys [1]: 6 ug of Proto IX per gram of tis | concentration of Proto IX in tissue, Liver [1]: 11 ug of Proto IX per gram of tis | concentration of Proto IX in tissue, Tumor [1]: 4 ug of Proto IX per gram of tis | Proto IX Mean Cps per gram, Adrenal [1]: 5611 Cps per gram × 10^3 | Proto IX Mean Cps per gram, Kidneys [1]: 661 Cps per gram × 10^3 | Proto IX Mean Cps per gram, Liver [1]: 1170 Cps per gram × 10^3 | Proto IX Mean Cps per gram, Tumor [1]: 449 Cps per gram × 10^3 | Weight of Tumor as excised [1]: 69 mg | Proto IX Mean Cps per gram, Intestine [1]: 1157 Cps per gram × 10^3 | activation at 100 µM (HeLa cells [2]): 280%

CC(C)Oc1cc(-n2c(=O)n3n(c2=O)CCCC3)c(F)cc1Cl [Agent 6h]
concentration of Proto IX in tissue, Adrenal [1]: 21 ug of Proto IX per gram of tis | concentration of Proto IX in tissue, Intestine [1]: 5 ug of Proto IX per gram of tis | concentration of Proto IX in tissue, Kidneys [1]: 5 ug of Proto IX per gram of tis | concentration of Proto IX in tissue, Liver [1]: 8 ug of Proto IX per gram of tis | concentration of Proto IX in tissue, Tumor [1]: 3 ug of Proto IX per gram of tis | Proto IX Mean Cps per gram, Adrenal [1]: 2259 Cps per gram × 10^3 | Proto IX Mean Cps per gram, Kidneys [1]: 585 Cps per gram × 10^3 | Proto IX Mean Cps per gram, Liver [1]: 914 Cps per gram × 10^3 | Proto IX Mean Cps per gram, Tumor [1]: 298 Cps per gram × 10^3 | Weight of Tumor as excised [1]: 192 mg | Proto IX Mean Cps per gram, Intestine [1]: 584 Cps per gram × 10^3 | activation at 100 µM (HeLa cells [2]): 431%

CCOC(=O)C(C)Oc1ccc(Oc2cc(-n3nc(C)n(C(F)F)c3=O)c(F)cc2Cl)cc1 (stereo not shown) [Agent C]
Amount of Proto IX (HeLa cells [3]): 3.5 pmol | Fluorescence Emission cps 400/630 (HeLa cells [3]): 33477 cps | Amount of Proto IX (HeLa cells [4]; 1 μM agent): 0.19 pmol | Amount of Proto IX (HeLa cells [4]; 10 μM agent): 0.57 pmol | Amount of Proto IX (HeLa cells [4]; 100 μM agent): 4.41 pmol | activity at 1 µM (HeLa cells [4]; Homo sapiens, HeLa, 96 h, 1 μM agent, percent of control, read-out: Relative % proto IX): 86% | activity at 10 µM (HeLa cells [4]; Homo sapiens, HeLa, 96 h, 10 μM agent, percent of control, read-out: Relative % proto IX): 259% | inhibition at 100 µM (HeLa cells [4]; Homo sapiens, HeLa, 96 h, 100 μM agent, 4 days in the dark): 52% | inhibition at 1 µM (HeLa cells [4]; Homo sapiens, HeLa, 1 μM agent, negative values indicate that growth occurred): -26% | inhibition at 10 µM (HeLa cells [4]; Homo sapiens, HeLa, 10 μM agent, negative values indicate that growth occurred): -15%
